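Five concentrations, 48 hours, 96-well plates. TGI: total growth inhibition.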
Each compound was assayed on A549 NSCLC (assay: NCI tumour cell line growth inhibition, 48 h).
`CN(C)/C=N/S(=O)(=O)c1nn2c(C=O)c(-c3ccccc3)nc2s1` showed a TGI of over 82.4 µM.

What follows are compounds tested on SF-295 CNS (assay: NCI tumour cell line growth inhibition, 48 h).
For `FC(F)(F)c1ccc2c(c1)nc(-c1ccccc1)n2CC1CCCN2CCCCC12` (stereo unspecified), the TGI was 31.7 µM. For `CC(C)(C)OC(=O)NCC(=O)NC1CC=CCC1NC(=O)CNC(=O)OC(C)(C)C` (stereo unspecified), the TGI was over 100 µM. `CC[C@@]1(O)C(=O)OCc2c1cc1n(c2=O)Cc2c-1nc1ccccc1c2/C=N/NC(=O)C[N+](C)(C)C` showed a TGI of over 33.3 µM. Work on `CN(C)/C=N/S(=O)(=O)c1nn2c(C=O)c(-c3ccccc3)nc2s1` yielded a TGI of over 100 µM.

These compounds were tested on SN12C renal (assay: NCI tumour cell line growth inhibition, 48 h).
Work on `CCCCCCCCCCCCCCCCOCC(Cl)CP(=O)(O)OP(=O)(O)OCC1OC(n2cnc3c(N)ncnc32)C(O)C1O` (stereo unspecified) yielded a TGI of over 100 µM. With `FC(F)(F)c1ccc2c(c1)nc(-c1ccccc1)n2CC1CCCN2CCCCC12` (stereo unspecified) the TGI was 45.5 µM. Work on `CC(C)(C)OC(=O)NCC(=O)NC1CC=CCC1NC(=O)CNC(=O)OC(C)(C)C` (stereo unspecified) yielded a TGI of over 100 µM. For `CC[C@@]1(O)C(=O)OCc2c1cc1n(c2=O)Cc2c-1nc1ccccc1c2/C=N/NC(=O)C[N+](C)(C)C`, the TGI was over 100 µM. `CN(C)/C=N/S(=O)(=O)c1nn2c(C=O)c(-c3ccccc3)nc2s1` was tested, and the TGI was 49.7 µM.

The compounds below were run on UO-31 renal (assay: NCI tumour cell line growth inhibition, 48 h).
`CCCCCCCCCCCCCCCCOCC(Cl)CP(=O)(O)OP(=O)(O)OCC1OC(n2cnc3c(N)ncnc32)C(O)C1O` (stereo unspecified) showed a TGI of over 100 µM. Work on `FC(F)(F)c1ccc2c(c1)nc(-c1ccccc1)n2CC1CCCN2CCCCC12` (stereo unspecified) yielded a TGI of 1.16 µM. For `CC(C)(C)OC(=O)NCC(=O)NC1CC=CCC1NC(=O)CNC(=O)OC(C)(C)C` (stereo unspecified), the TGI was over 100 µM. `CC[C@@]1(O)C(=O)OCc2c1cc1n(c2=O)Cc2c-1nc1ccccc1c2/C=N/NC(=O)C[N+](C)(C)C` gave a TGI of 9.72 µM. In the case of `CN(C)/C=N/S(=O)(=O)c1nn2c(C=O)c(-c3ccccc3)nc2s1`, the TGI is reported as 19.5 µM.

Each compound was assayed on UACC-257 melanoma (assay: NCI tumour cell line growth inhibition, 48 h).
`CCCCCCCCCCCCCCCCOCC(Cl)CP(=O)(O)OP(=O)(O)OCC1OC(n2cnc3c(N)ncnc32)C(O)C1O` (stereo unspecified) gave a TGI of over 100 µM. Work on `FC(F)(F)c1ccc2c(c1)nc(-c1ccccc1)n2CC1CCCN2CCCCC12` (stereo unspecified) yielded a TGI of 31.8 µM. `CC(C)(C)OC(=O)NCC(=O)NC1CC=CCC1NC(=O)CNC(=O)OC(C)(C)C` (stereo unspecified) was tested, and the TGI was over 100 µM. `CC[C@@]1(O)C(=O)OCc2c1cc1n(c2=O)Cc2c-1nc1ccccc1c2/C=N/NC(=O)C[N+](C)(C)C` was tested, and the TGI was over 100 µM. With `CN(C)/C=N/S(=O)(=O)c1nn2c(C=O)c(-c3ccccc3)nc2s1` the TGI was over 63.3 µM.

The compounds below were run on DU-145 prostate (assay: NCI tumour cell line growth inhibition, 48 h).
In the case of `CCCCCCCCCCCCCCCCOCC(Cl)CP(=O)(O)OP(=O)(O)OCC1OC(n2cnc3c(N)ncnc32)C(O)C1O` (stereo unspecified), the TGI is reported as over 100 µM. Work on `FC(F)(F)c1ccc2c(c1)nc(-c1ccccc1)n2CC1CCCN2CCCCC12` (stereo unspecified) yielded a TGI of over 100 µM. Work on `CC(C)(C)OC(=O)NCC(=O)NC1CC=CCC1NC(=O)CNC(=O)OC(C)(C)C` (stereo unspecified) yielded a TGI of over 100 µM. Compound `CC[C@@]1(O)C(=O)OCc2c1cc1n(c2=O)Cc2c-1nc1ccccc1c2/C=N/NC(=O)C[N+](C)(C)C` has a TGI of 22 µM. For `CN(C)/C=N/S(=O)(=O)c1nn2c(C=O)c(-c3ccccc3)nc2s1`, the TGI was over 100 µM.

The compounds below were run on SR leukemia (assay: NCI tumour cell line growth inhibition, 48 h).
For `CCCCCCCCCCCCCCCCOCC(Cl)CP(=O)(O)OP(=O)(O)OCC1OC(n2cnc3c(N)ncnc32)C(O)C1O` (stereo unspecified), the TGI was over 100 µM. For `FC(F)(F)c1ccc2c(c1)nc(-c1ccccc1)n2CC1CCCN2CCCCC12` (stereo unspecified), the TGI was 49.2 µM. In the case of `CC(C)(C)OC(=O)NCC(=O)NC1CC=CCC1NC(=O)CNC(=O)OC(C)(C)C` (stereo unspecified), the TGI is reported as over 100 µM. `CC[C@@]1(O)C(=O)OCc2c1cc1n(c2=O)Cc2c-1nc1ccccc1c2/C=N/NC(=O)C[N+](C)(C)C` gave a TGI of 0.922 µM. In the case of `CN(C)/C=N/S(=O)(=O)c1nn2c(C=O)c(-c3ccccc3)nc2s1`, the TGI is reported as 21.3 µM.

The compounds below were run on HL-60(TB) leukemia (assay: NCI tumour cell line growth inhibition, 48 h).
`CCCCCCCCCCCCCCCCOCC(Cl)CP(=O)(O)OP(=O)(O)OCC1OC(n2cnc3c(N)ncnc32)C(O)C1O` (stereo unspecified) was tested, and the TGI was over 100 µM. `FC(F)(F)c1ccc2c(c1)nc(-c1ccccc1)n2CC1CCCN2CCCCC12` (stereo unspecified) gave a TGI of 33.8 µM. `CC(C)(C)OC(=O)NCC(=O)NC1CC=CCC1NC(=O)CNC(=O)OC(C)(C)C` (stereo unspecified) gave a TGI of over 100 µM.

Each compound was assayed on OVCAR-4 ovarian (assay: NCI tumour cell line growth inhibition, 48 h).
In the case of `CCCCCCCCCCCCCCCCOCC(Cl)CP(=O)(O)OP(=O)(O)OCC1OC(n2cnc3c(N)ncnc32)C(O)C1O` (stereo unspecified), the TGI is reported as over 100 µM. Compound `FC(F)(F)c1ccc2c(c1)nc(-c1ccccc1)n2CC1CCCN2CCCCC12` (stereo unspecified) has a TGI of over 100 µM. With `CC(C)(C)OC(=O)NCC(=O)NC1CC=CCC1NC(=O)CNC(=O)OC(C)(C)C` (stereo unspecified) the TGI was over 100 µM. Compound `CC[C@@]1(O)C(=O)OCc2c1cc1n(c2=O)Cc2c-1nc1ccccc1c2/C=N/NC(=O)C[N+](C)(C)C` has a TGI of over 100 µM. `CN(C)/C=N/S(=O)(=O)c1nn2c(C=O)c(-c3ccccc3)nc2s1` showed a TGI of over 89.9 µM.

The compounds below were run on OVCAR-5 ovarian (assay: NCI tumour cell line growth inhibition, 48 h).
`CCCCCCCCCCCCCCCCOCC(Cl)CP(=O)(O)OP(=O)(O)OCC1OC(n2cnc3c(N)ncnc32)C(O)C1O` (stereo unspecified) was tested, and the TGI was over 100 µM. Compound `CC(C)(C)OC(=O)NCC(=O)NC1CC=CCC1NC(=O)CNC(=O)OC(C)(C)C` (stereo unspecified) has a TGI of over 100 µM. For `CC[C@@]1(O)C(=O)OCc2c1cc1n(c2=O)Cc2c-1nc1ccccc1c2/C=N/NC(=O)C[N+](C)(C)C`, the TGI was over 100 µM. For `CN(C)/C=N/S(=O)(=O)c1nn2c(C=O)c(-c3ccccc3)nc2s1`, the TGI was over 100 µM.

Each compound was assayed on SK-MEL-2 melanoma (assay: NCI tumour cell line growth inhibition, 48 h).
With `CCCCCCCCCCCCCCCCOCC(Cl)CP(=O)(O)OP(=O)(O)OCC1OC(n2cnc3c(N)ncnc32)C(O)C1O` (stereo unspecified) the TGI was over 100 µM. `FC(F)(F)c1ccc2c(c1)nc(-c1ccccc1)n2CC1CCCN2CCCCC12` (stereo unspecified) gave a TGI of 29.3 µM. Compound `CC[C@@]1(O)C(=O)OCc2c1cc1n(c2=O)Cc2c-1nc1ccccc1c2/C=N/NC(=O)C[N+](C)(C)C` has a TGI of over 100 µM. With `CN(C)/C=N/S(=O)(=O)c1nn2c(C=O)c(-c3ccccc3)nc2s1` the TGI was over 100 µM.

What follows are compounds tested on U251 CNS (assay: NCI tumour cell line growth inhibition, 48 h).
For `CCCCCCCCCCCCCCCCOCC(Cl)CP(=O)(O)OP(=O)(O)OCC1OC(n2cnc3c(N)ncnc32)C(O)C1O` (stereo unspecified), the TGI was over 100 µM. Work on `FC(F)(F)c1ccc2c(c1)nc(-c1ccccc1)n2CC1CCCN2CCCCC12` (stereo unspecified) yielded a TGI of 56.2 µM. In the case of `CC(C)(C)OC(=O)NCC(=O)NC1CC=CCC1NC(=O)CNC(=O)OC(C)(C)C` (stereo unspecified), the TGI is reported as over 100 µM. Work on `CC[C@@]1(O)C(=O)OCc2c1cc1n(c2=O)Cc2c-1nc1ccccc1c2/C=N/NC(=O)C[N+](C)(C)C` yielded a TGI of over 35.8 µM. `CN(C)/C=N/S(=O)(=O)c1nn2c(C=O)c(-c3ccccc3)nc2s1` was tested, and the TGI was over 31.6 µM.

These compounds were tested on T-47D breast (assay: NCI tumour cell line growth inhibition, 48 h).
`CCCCCCCCCCCCCCCCOCC(Cl)CP(=O)(O)OP(=O)(O)OCC1OC(n2cnc3c(N)ncnc32)C(O)C1O` (stereo unspecified) was tested, and the TGI was over 100 µM. `FC(F)(F)c1ccc2c(c1)nc(-c1ccccc1)n2CC1CCCN2CCCCC12` (stereo unspecified) gave a TGI of 71.7 µM. In the case of `CC(C)(C)OC(=O)NCC(=O)NC1CC=CCC1NC(=O)CNC(=O)OC(C)(C)C` (stereo unspecified), the TGI is reported as over 100 µM. Work on `CC[C@@]1(O)C(=O)OCc2c1cc1n(c2=O)Cc2c-1nc1ccccc1c2/C=N/NC(=O)C[N+](C)(C)C` yielded a TGI of 30.4 µM. `CN(C)/C=N/S(=O)(=O)c1nn2c(C=O)c(-c3ccccc3)nc2s1` gave a TGI of 61.4 µM.

Each compound was assayed on MOLT-4 leukemia (assay: NCI tumour cell line growth inhibition, 48 h).
Work on `CCCCCCCCCCCCCCCCOCC(Cl)CP(=O)(O)OP(=O)(O)OCC1OC(n2cnc3c(N)ncnc32)C(O)C1O` (stereo unspecified) yielded a TGI of over 100 µM. `FC(F)(F)c1ccc2c(c1)nc(-c1ccccc1)n2CC1CCCN2CCCCC12` (stereo unspecified) showed a TGI of over 100 µM. `CC(C)(C)OC(=O)NCC(=O)NC1CC=CCC1NC(=O)CNC(=O)OC(C)(C)C` (stereo unspecified) was tested, and the TGI was over 100 µM. Compound `CC[C@@]1(O)C(=O)OCc2c1cc1n(c2=O)Cc2c-1nc1ccccc1c2/C=N/NC(=O)C[N+](C)(C)C` has a TGI of 16.3 µM. `CN(C)/C=N/S(=O)(=O)c1nn2c(C=O)c(-c3ccccc3)nc2s1` gave a TGI of 32.1 µM.

What follows are compounds tested on OVCAR-8 ovarian (assay: NCI tumour cell line growth inhibition, 48 h).
`CCCCCCCCCCCCCCCCOCC(Cl)CP(=O)(O)OP(=O)(O)OCC1OC(n2cnc3c(N)ncnc32)C(O)C1O` (stereo unspecified) showed a TGI of over 100 µM. `FC(F)(F)c1ccc2c(c1)nc(-c1ccccc1)n2CC1CCCN2CCCCC12` (stereo unspecified) was tested, and the TGI was 37.9 µM. `CC(C)(C)OC(=O)NCC(=O)NC1CC=CCC1NC(=O)CNC(=O)OC(C)(C)C` (stereo unspecified) was tested, and the TGI was over 100 µM. `CC[C@@]1(O)C(=O)OCc2c1cc1n(c2=O)Cc2c-1nc1ccccc1c2/C=N/NC(=O)C[N+](C)(C)C` gave a TGI of over 100 µM. In the case of `CN(C)/C=N/S(=O)(=O)c1nn2c(C=O)c(-c3ccccc3)nc2s1`, the TGI is reported as over 53.4 µM.

What follows are compounds tested on PC-3 prostate (assay: NCI tumour cell line growth inhibition, 48 h).
`CCCCCCCCCCCCCCCCOCC(Cl)CP(=O)(O)OP(=O)(O)OCC1OC(n2cnc3c(N)ncnc32)C(O)C1O` (stereo unspecified) was tested, and the TGI was over 100 µM. Work on `FC(F)(F)c1ccc2c(c1)nc(-c1ccccc1)n2CC1CCCN2CCCCC12` (stereo unspecified) yielded a TGI of 34.1 µM. Work on `CC(C)(C)OC(=O)NCC(=O)NC1CC=CCC1NC(=O)CNC(=O)OC(C)(C)C` (stereo unspecified) yielded a TGI of over 100 µM. For `CC[C@@]1(O)C(=O)OCc2c1cc1n(c2=O)Cc2c-1nc1ccccc1c2/C=N/NC(=O)C[N+](C)(C)C`, the TGI was over 100 µM. In the case of `CN(C)/C=N/S(=O)(=O)c1nn2c(C=O)c(-c3ccccc3)nc2s1`, the TGI is reported as over 89 µM.

From PubChem BioAssay (NCI)
